Laboratory results reported in paper PMC7419507, “In vitro Cas9-assisted editing of modular polyketide synthase genes to produce desired natural product derivatives” (Nature Communications, 2020).
“And” between values parts separate entries of the source, which are not always exact repeats. Identical values can stand only once.

Legend:
FKBP12 and mTOR = target: T1, FKBP12 and mTOR (Homo sapiens, UniProt P42345+P62942); assay: Fluoppi analysis: induction of FKBP12-mTOR complex formation in transfected HeLa cells; type: cell-based; conditions: for Foci intensity: raw data, one replicate per line
T1 construct: host or cells: HeLa cells
T1 sequence (P42345 2025-2114 limits assumed): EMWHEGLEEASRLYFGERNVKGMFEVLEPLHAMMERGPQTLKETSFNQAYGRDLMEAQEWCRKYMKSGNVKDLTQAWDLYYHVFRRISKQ
T1 sequence (P62942 whole entry): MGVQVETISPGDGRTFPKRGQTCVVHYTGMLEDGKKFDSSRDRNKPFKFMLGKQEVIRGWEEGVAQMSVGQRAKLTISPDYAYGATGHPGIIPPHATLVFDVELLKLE
Method in brief: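 Complex formation read as fluorescent foci: foci intensity over total per-cell intensity, imaged (×20, 9 fields/well) after fixation and Hoechst stain, giving EC50. Cells: HeLa transiently expressing hAG-mTOR and Ash-FKBP12, exposed to compound concentrations for 1 h at 37 °C.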

[1] = Cytotoxicity assay (CellTiter-Glo, 72 h), SKOV-3; type: cell-based, human; conditions: human, raw replicate data, read-out: SKOV3 viability (%)
Method in brief: (§1)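 Cells were seeded at 1000 cells/well and allowed 4 h at 37 °C, 5% CO2 before 2-fold compound dilutions in DMSO were added (0.5% final DMSO). After 72 h exposure, viability was read by CellTiter-Glo luminescence.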

[2] = test system: human ovarian adenocarcinoma SKOV-3 cells; assay: Cytotoxicity assay (CellTiter-Glo, 72 h), SKOV-3; type: cell-based; conditions: raw replicate data
Method in brief: as §1

[3] = Cytotoxicity assay (CellTiter-Glo, 72 h), MESO-1; type: cell-based; conditions: human, MESO-1 malignant pleural mesothelioma cells, raw replicate data, read-out: MESO1 viability (%)
Method in brief: as §1

[4] = test system: malignant pleural mesothelioma MESO-1 cells; assay: Cytotoxicity assay (CellTiter-Glo, 72 h), MESO-1; type: cell-based; conditions: raw replicate data
Method in brief: as §1

[5] = test system: Jurkat, SKOV-3 and MESO-1 cells; assay: Cytotoxicity assay, statements for all tested cell lines together; type: cell-based; conditions: against the tested cell lines (Jurkat, SKOV-3, MESO-1)
Method in brief: as §1

CO[C@H]1C[C@@H]2CC[C@@H](C)[C@@](O)(O2)C(=O)C(=O)N2CCCC[C@H]2C(=O)O[C@H]([C@H](C)C[C@@H]2CC[C@@H](O)[C@H](OC)C2)CC(=O)[C@H](C)/C=C(\C)[C@@H](O)CC(=O)[C@H](C)C[C@H](C)/C=C/C=C(C)/C=C/1C [Compound 2, 27-demethoxy-19-methyl rapamycin]
PPI-inducing (binding enhancing) activity between FKBP12 and mTOR compared with rapamycin (1), in words (FKBP12 and mTOR; Fluoppi): relatively weaker activities | EC50 (FKBP12 and mTOR; Fluoppi, HeLa cells, 1 h treatment, three independent biological replicates, read-out: EC50, induction of the formation of FKBP-mTOR complex): 45 nM | Foci intensity (FKBP12 and mTOR; conc 9.53674e-5 uM): 0.02068 and 0.01364 and 0.008639 | Foci intensity (FKBP12 and mTOR; conc 0.000190735 uM): 0.01744 and 0.007135 and 0.0155 | Foci intensity (FKBP12 and mTOR; conc 0.00038147 uM): 0.04148 and 0.01907 and 0.0147 | Foci intensity (FKBP12 and mTOR; conc 0.000762939 uM): 0.01977 and 0.01076 and 0.01197 | Foci intensity (FKBP12 and mTOR; conc 0.00152588 uM): 0.06388 and 0.02909 and 0.00714 | Foci intensity (FKBP12 and mTOR; conc 0.00305176 uM): 0.01847 and 0.0327 and 0.01128 | Foci intensity (FKBP12 and mTOR; conc 0.00610352 uM): 0.01966 and 0.01473 and 0.01204 | Foci intensity (FKBP12 and mTOR; conc 0.012207 uM): 0.01622 and 0.03454 and 0.02495 | Foci intensity (FKBP12 and mTOR; conc 0.0244141 uM): 0.05679 and 0.05606 and 0.04583 | Foci intensity (FKBP12 and mTOR; conc 0.0488281 uM): 0.1221 and 0.237 and 0.2378 | Foci intensity (FKBP12 and mTOR; conc 0.0976562 uM): 0.306 and 0.2748 and 0.2045 | Foci intensity (FKBP12 and mTOR; conc 0.195312 uM): 0.3211 and 0.3269 and 0.2723 | Foci intensity (FKBP12 and mTOR; conc 0.390625 uM): 0.3599 and 0.2761 and 0.3358 | Foci intensity (FKBP12 and mTOR; conc 0.78125 uM): 0.3175 and 0.3752 and 0.289 | Foci intensity (FKBP12 and mTOR; conc 1.5625 uM): 0.3697 and 0.3114 and 0.3338 | Foci intensity (FKBP12 and mTOR; conc 3.125 uM): 0.3541 and 0.2997 and 0.3309 | Foci intensity (FKBP12 and mTOR; conc 6.25 uM): 0.3255 and 0.2796 and 0.2953 | Foci intensity (FKBP12 and mTOR; conc 12.5 uM): 0.3157 and 0.354 and 0.2564 | Foci intensity (FKBP12 and mTOR; conc 25 uM): 0.3263 and 0.3214 and 0.3499 | Foci intensity (FKBP12 and mTOR; conc 50 uM): 0.3058 and 0.2791 and 0.2528 | viability at 72 h, 9.53674e-05 uM ([1]; SKOV-3 cells (ovarian adenocarcinoma), conc 9.53674e-5 uM): 94.7% | viability at 72 h, 0.000190735 uM ([1]; SKOV-3 cells (ovarian adenocarcinoma), conc 0.000190735 uM): 95.8% | viability at 72 h, 0.00038147 uM ([1]; SKOV-3 cells (ovarian adenocarcinoma), conc 0.00038147 uM): 97.8% | viability at 72 h, 0.000762939 uM ([1]; SKOV-3 cells (ovarian adenocarcinoma), conc 0.000762939 uM): 98.5% | viability at 72 h, 0.00152588 uM ([1]; SKOV-3 cells (ovarian adenocarcinoma), conc 0.00152588 uM): 106% | viability at 72 h, 0.00305176 uM ([1]; SKOV-3 cells (ovarian adenocarcinoma), conc 0.00305176 uM): 97% | viability at 72 h, 0.00610352 uM ([1]; SKOV-3 cells (ovarian adenocarcinoma), conc 0.00610352 uM): 105% | viability at 72 h, 0.012207 uM ([1]; SKOV-3 cells (ovarian adenocarcinoma), conc 0.012207 uM): 90.8% | viability at 72 h, 0.0244141 uM ([1]; SKOV-3 cells (ovarian adenocarcinoma), conc 0.0244141 uM): 96.5% | viability at 72 h, 0.0488281 uM ([1]; SKOV-3 cells (ovarian adenocarcinoma), conc 0.0488281 uM): 96.1% | viability at 72 h, 0.0976562 uM ([1]; SKOV-3 cells (ovarian adenocarcinoma), conc 0.0976562 uM): 97.7% | viability at 72 h, 0.195312 uM ([1]; SKOV-3 cells (ovarian adenocarcinoma), conc 0.195312 uM): 97.9% | viability at 72 h, 0.390625 uM ([1]; SKOV-3 cells (ovarian adenocarcinoma), conc 0.390625 uM): 98.8% | viability at 72 h, 12.5 uM ([1]; SKOV-3 cells (ovarian adenocarcinoma), conc 12.5 uM): 91.2% | viability at 72 h, 25 uM ([1]; SKOV-3 cells (ovarian adenocarcinoma), conc 25 uM): 100% | viability at 72 h, 50 uM ([1]; SKOV-3 cells (ovarian adenocarcinoma), conc 50 uM): 20.5% | viability at 72 h, 0.78125 uM ([1]; SKOV-3 ovarian adenocarcinoma cells, conc 0.78125 uM): 93.9% | viability at 72 h, 1.5625 uM ([1]; SKOV-3 ovarian adenocarcinoma cells, conc 1.5625 uM): 95.7% | viability at 72 h, 3.125 uM ([1]; SKOV-3 ovarian adenocarcinoma cells, conc 3.125 uM): 102% | viability at 72 h, 6.25 uM ([1]; SKOV-3 ovarian adenocarcinoma cells, conc 6.25 uM): 102% | SKOV3 viability (%) ([2]; conc 9.53674e-5 uM): 102.9% and 98.3% | SKOV3 viability (%) ([2]; conc 0.000190735 uM): 104.0% and 97.1% | SKOV3 viability (%) ([2]; conc 0.00038147 uM): 97.2% and 104.3% | SKOV3 viability (%) ([2]; conc 0.000762939 uM): 101.6% and 95.9% | SKOV3 viability (%) ([2]; conc 0.00152588 uM): 101.4% and 101.1% | SKOV3 viability (%) ([2]; conc 0.00305176 uM): 96.6% and 99.8% | SKOV3 viability (%) ([2]; conc 0.00610352 uM): 102.9% and 97.3% | SKOV3 viability (%) ([2]; conc 0.012207 uM): 93.7% | SKOV3 viability (%) ([2]; conc 0.0244141 uM): 96.2% and 94.8% | SKOV3 viability (%) ([2]; conc 0.0488281 uM): 100.2% and 102.5% | SKOV3 viability (%) ([2]; conc 0.0976562 uM): 99.8% and 96.7% | SKOV3 viability (%) ([2]; conc 0.195312 uM): 94.3% and 95.1% | SKOV3 viability (%) ([2]; conc 0.390625 uM): 99.5% and 95.3% | SKOV3 viability (%) ([2]; conc 0.78125 uM): 97.2% | SKOV3 viability (%) ([2]; conc 1.5625 uM): 98.7% and 99.8% | SKOV3 viability (%) ([2]; conc 3.125 uM): 98.6% and 90.6% | SKOV3 viability (%) ([2]; conc 6.25 uM): 97.2% and 96.7% | SKOV3 viability (%) ([2]; conc 12.5 uM): 95.5% and 90.7% | SKOV3 viability (%) ([2]; conc 25 uM): 97.5% | SKOV3 viability (%) ([2]; conc 50 uM): 21.5% and 18.1% | viability at 72 h, 9.53674e-05 uM ([3]; conc 9.53674e-5 uM): 101% | viability at 72 h, 0.000190735 uM ([3]; conc 0.000190735 uM): 97.4% | viability at 72 h, 0.00038147 uM ([3]; conc 0.00038147 uM): 96% | viability at 72 h, 0.000762939 uM ([3]; conc 0.000762939 uM): 100% | viability at 72 h, 0.00152588 uM ([3]; conc 0.00152588 uM): 97% | viability at 72 h, 0.00305176 uM ([3]; conc 0.00305176 uM): 104% | viability at 72 h, 0.00610352 uM ([3]; conc 0.00610352 uM): 105% | viability at 72 h, 0.012207 uM ([3]; conc 0.012207 uM): 103% | viability at 72 h, 0.0244141 uM ([3]; conc 0.0244141 uM): 103% | viability at 72 h, 0.0488281 uM ([3]; conc 0.0488281 uM): 102% | viability at 72 h, 0.0976562 uM ([3]; conc 0.0976562 uM): 107% | viability at 72 h, 0.195312 uM ([3]; conc 0.195312 uM): 103% | viability at 72 h, 0.390625 uM ([3]; conc 0.390625 uM): 109% | viability at 72 h, 0.78125 uM ([3]; conc 0.78125 uM): 93.3% | viability at 72 h, 1.5625 uM ([3]; conc 1.5625 uM): 99.9% | viability at 72 h, 3.125 uM ([3]; conc 3.125 uM): 97.7% | viability at 72 h, 6.25 uM ([3]; conc 6.25 uM): 97.3% | viability at 72 h, 12.5 uM ([3]; conc 12.5 uM): 98% | viability at 72 h, 25 uM ([3]; conc 25 uM): 84% | viability at 72 h, 50 uM ([3]; conc 50 uM): 2.4% | MESO1 viability (%) ([4]; conc 9.53674e-5 uM): 104.9% | MESO1 viability (%) ([4]; conc 0.000190735 uM): 103.1% and 96.1% | MESO1 viability (%) ([4]; conc 0.00038147 uM): 98.5% and 98.1% | MESO1 viability (%) ([4]; conc 0.000762939 uM): 110.7% and 97.2% | MESO1 viability (%) ([4]; conc 0.00152588 uM): 108.1% and 104.8% | MESO1 viability (%) ([4]; conc 0.00305176 uM): 97.8% and 100.1% | MESO1 viability (%) ([4]; conc 0.00610352 uM): 108.3% and 98.8% | MESO1 viability (%) ([4]; conc 0.012207 uM): 101.9% and 99.1% | MESO1 viability (%) ([4]; conc 0.0244141 uM): 104.7% and 100.7% | MESO1 viability (%) ([4]; conc 0.0488281 uM): 104.5% and 103.1% | MESO1 viability (%) ([4]; conc 0.0976562 uM): 98.7% and 102.0% | MESO1 viability (%) ([4]; conc 0.195312 uM): 104.9% and 106.8% | MESO1 viability (%) ([4]; conc 0.390625 uM): 97.6% and 96.8% | MESO1 viability (%) ([4]; conc 0.78125 uM): 95.1% and 98.4% | MESO1 viability (%) ([4]; conc 1.5625 uM): 99.0% and 101.9% | MESO1 viability (%) ([4]; conc 3.125 uM): 94.6% and 96.8% | MESO1 viability (%) ([4]; conc 6.25 uM): 96.9% and 103.3% | MESO1 viability (%) ([4]; conc 12.5 uM): 98.9% and 92.4% | MESO1 viability (%) ([4]; conc 25 uM): 86.3% and 80.9% | MESO1 viability (%) ([4]; conc 50 uM): 1.2% and 1.3% | Concentration at which cytotoxic activities were shown [5]: over 10 µM
